Test results reported in ChEMBL document CHEMBL5150005, “Discovery of 5-{4-[(7-Ethyl-6-oxo-5,6-dihydro-1,5-naphthyridin-3-yl)methyl]piperazin-1-yl}-N-methylpyridine-2-carboxamide (AZD5305): A PARP1-DNA Trapper with High Selectivity for PARP1 over PARP2 and Other PARPs” (J Med Chem, 2021).
Converted amounts (≈) assume the structure as drawn. The source made the active and inactive calls. The rule behind the calls is not given here.

What was measured:
[1] = target: Protein mono-ADP-ribosyltransferase PARP3 (Homo sapiens) (UniProt Q9Y6F1); assay: Binding affinity to PARP3 (unknown origin) assessed as apparent dissociation constant
[2] = Half life in rat; assay type: ADME; settings: in vivo
in vitro [3] = settings: rat, plasma
[4] = Plasma clearance in monkey; assay type: ADME, Macaca mulatta; settings: rhesus monkey
[5] = target: Protein mono-ADP-ribosyltransferase PARP9 (Homo sapiens, UniProt Q8IXQ6)
[6] = Plasma clearance in mouse; assay type: ADME, organism-based
[7] = Plasma clearance in dog; assay type: ADME, Canis lupus familiaris
[8] = target: Protein mono-ADP-ribosyltransferase PARP4 (Homo sapiens) (UniProt Q9UKK3); assay: Binding affinity to PARP4 (unknown origin) assessed as apparent dissociation constant
[9] = Hematotoxicity in CD34+ hematopoietic stem/progenitor cells (unknown origin) assessed as reduction of cell viability treated for 5 days by cell-tire-Glo-2.0 luminescence based assay; assay type: toxicity, CD34-positive hematopoietic stem/progenitor cell; settings: cd34-positive hematopoietic stem/progenitor cell, 120 h; DDE = dose-dependent effect; dose lower 1e-05 µM, dose upper 100 µM, time 5 day
[10] = Unbound clearance in monkey; assay type: ADME, Macaca mulatta; settings: rhesus monkey, in vivo
[11] = Oral bioavailability in rat; assay type: ADME, organism-based; settings: in vivo
[12] = Half life in dog; assay type: ADME, Canis lupus familiaris; settings: in vivo
[13] = Volume of distribution at steady state in monkey; assay type: ADME, Macaca mulatta; settings: rhesus monkey, in vivo; read-out: Vdss
[14] = Oral bioavailability in monkey; assay type: ADME, organism-based, Macaca mulatta; settings: rhesus monkey, in vivo
[15] = Aqueous solubility of the compound at pH 7.4; assay type: physicochemical; settings: buffer
[16] = Antitumor activity against patient derived explant HBCx-17 cells xenografted in mouse assessed as tumor regression administered daily at 0.03 mg/kg, po for 25 days relative to control; assay type: functional, Homo sapiens; settings: time 25 day
[17] = target: Protein mono-ADP-ribosyltransferase PARP10 (Homo sapiens, UniProt Q53GL7); assay: Binding affinity to PARP10 (unknown origin) assessed as apparent dissociation constant; settings: read-out: Kd(app)
[18] = Unbound clearance in rat; assay type: ADME; settings: in vivo
physchem = settings: buffer, pH 7.4
[19] = Volume of distribution at steady state in rat; assay type: ADME; settings: in vivo, read-out: Vdss
in vitro [20] = settings: dog, plasma
[21] = Volume of distribution at steady state in dog; assay type: ADME, Canis lupus familiaris; settings: in vivo, read-out: Vdss
[22] = Antitumor activity against patient derived explant HBCx-17 cells xenografted in mouse assessed as tumor regression administered daily at 0.1 mg/kg, po for 25 days relative to control; assay type: functional, Homo sapiens; settings: time 25 day
[23] = Oral bioavailability in dog; assay type: ADME, organism-based, Canis lupus familiaris; settings: in vivo
DLD-1 = assay: Antiproliferative activity against human DLD-1 deficient in BRCA-2 cells measured after 7 days; assay type: functional, cell-based; settings: Homo sapiens, DLD-1, 168 h
[24] = target: Protein mono-ADP-ribosyltransferase PARP14 (Homo sapiens) (UniProt Q460N5)
in vitro [25] = settings: rhesus monkey, plasma
[26] = target: Protein mono-ADP-ribosyltransferase PARP16 (Homo sapiens) (UniProt Q8N5Y8); assay: Binding affinity to PARP16 (unknown origin) assessed as apparent dissociation constant
[27] = Hematotoxicity in CD34+ hematopoietic stem/progenitor cells (unknown origin) assessed as reduction of cell viability treated at 3 nM for 5 days by cell-tire-Glo-2.0 luminescence based assay; assay type: toxicity; settings: cd34-positive hematopoietic stem/progenitor cell, 120 h, 0.003 µM, time 5 day
in vitro [28] = settings: human, liver microsomes
[29] = target: Poly [ADP-ribose] polymerase tankyrase-1 (Homo sapiens) (UniProt O95271); assay: Binding affinity to PARP5a (unknown origin) assessed as apparent dissociation constant
[30] = Unbound clearance in dog; assay type: ADME, Canis lupus familiaris; settings: in vivo
[31] = Intrinsic clearance in human hepatocytes measured per million of cells; assay type: ADME, cell-based, Hepatocyte; settings: read-out: CLH
[32] = Half life in mouse; assay type: ADME, organism-based; settings: in vivo
[33] = Antitumor activity against patient derived explant HBCx-17 cells xenografted in mouse assessed as tumor regression administered daily at 1 mg/kg, po for 25 days relative to control; assay type: functional, Homo sapiens; settings: time 25 day
[34] = Unbound clearance in mouse; assay type: ADME, organism-based; settings: in vivo
[35] = Antitumor activity against patient derived explant HBCx-17 cells xenografted in mouse assessed as tumor regression administered daily at 10 mg/kg, po for 25 days relative to control; assay type: functional, Homo sapiens; settings: time 25 day
[36] = target: Protein mono-ADP-ribosyltransferase PARP12 (Homo sapiens) (UniProt Q9H0J9)
[37] = Volume of distribution at steady state in mouse; assay type: ADME, organism-based; settings: in vivo, read-out: Vdss
[38] = target: T1, Protein mono-ADP-ribosyltransferase PARP8 (Homo sapiens) (UniProt Q8N3A8)
T1 sequence (whole entry): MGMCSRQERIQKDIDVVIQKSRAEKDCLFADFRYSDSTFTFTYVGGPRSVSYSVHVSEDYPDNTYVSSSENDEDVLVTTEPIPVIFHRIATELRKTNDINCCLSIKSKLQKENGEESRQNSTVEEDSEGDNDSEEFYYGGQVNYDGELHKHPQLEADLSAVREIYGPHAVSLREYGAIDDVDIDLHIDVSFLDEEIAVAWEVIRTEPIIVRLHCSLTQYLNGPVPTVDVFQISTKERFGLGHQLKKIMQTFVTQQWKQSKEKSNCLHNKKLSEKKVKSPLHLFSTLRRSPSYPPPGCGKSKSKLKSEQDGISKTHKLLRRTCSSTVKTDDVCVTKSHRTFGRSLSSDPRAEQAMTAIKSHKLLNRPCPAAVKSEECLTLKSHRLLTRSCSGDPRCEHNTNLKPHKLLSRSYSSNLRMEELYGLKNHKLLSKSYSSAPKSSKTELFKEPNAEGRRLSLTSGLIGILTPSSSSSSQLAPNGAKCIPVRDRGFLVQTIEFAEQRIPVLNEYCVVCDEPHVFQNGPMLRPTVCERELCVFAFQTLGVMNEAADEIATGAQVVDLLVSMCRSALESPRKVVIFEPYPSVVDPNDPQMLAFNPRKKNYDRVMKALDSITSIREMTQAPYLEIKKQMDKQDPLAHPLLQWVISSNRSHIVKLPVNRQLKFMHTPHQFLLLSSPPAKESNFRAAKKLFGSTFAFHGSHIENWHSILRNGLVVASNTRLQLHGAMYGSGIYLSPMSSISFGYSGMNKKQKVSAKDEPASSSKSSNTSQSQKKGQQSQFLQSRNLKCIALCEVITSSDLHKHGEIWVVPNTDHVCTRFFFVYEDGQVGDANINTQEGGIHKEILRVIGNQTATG

[39] = Plasma clearance in rat; assay type: ADME
[40] = Half life in monkey; assay type: ADME, Macaca mulatta; settings: rhesus monkey, in vivo
[41] = Oral bioavailability in mouse; assay type: ADME, organism-based; settings: in vivo
[42] = Hematotoxicity in CD34+ hematopoietic stem/progenitor cells (unknown origin) assessed as remaining viable cells treated at 100 nM for 5 days by cell-tire-Glo-2.0 luminescence based assay relative to control; assay type: toxicity, CD34-positive hematopoietic stem/progenitor cell; settings: time 5 day, read-out: Activity

Sequence of Protein mono-ADP-ribosyltransferase PARP4 (Homo sapiens) (Q9UKK3 whole entry): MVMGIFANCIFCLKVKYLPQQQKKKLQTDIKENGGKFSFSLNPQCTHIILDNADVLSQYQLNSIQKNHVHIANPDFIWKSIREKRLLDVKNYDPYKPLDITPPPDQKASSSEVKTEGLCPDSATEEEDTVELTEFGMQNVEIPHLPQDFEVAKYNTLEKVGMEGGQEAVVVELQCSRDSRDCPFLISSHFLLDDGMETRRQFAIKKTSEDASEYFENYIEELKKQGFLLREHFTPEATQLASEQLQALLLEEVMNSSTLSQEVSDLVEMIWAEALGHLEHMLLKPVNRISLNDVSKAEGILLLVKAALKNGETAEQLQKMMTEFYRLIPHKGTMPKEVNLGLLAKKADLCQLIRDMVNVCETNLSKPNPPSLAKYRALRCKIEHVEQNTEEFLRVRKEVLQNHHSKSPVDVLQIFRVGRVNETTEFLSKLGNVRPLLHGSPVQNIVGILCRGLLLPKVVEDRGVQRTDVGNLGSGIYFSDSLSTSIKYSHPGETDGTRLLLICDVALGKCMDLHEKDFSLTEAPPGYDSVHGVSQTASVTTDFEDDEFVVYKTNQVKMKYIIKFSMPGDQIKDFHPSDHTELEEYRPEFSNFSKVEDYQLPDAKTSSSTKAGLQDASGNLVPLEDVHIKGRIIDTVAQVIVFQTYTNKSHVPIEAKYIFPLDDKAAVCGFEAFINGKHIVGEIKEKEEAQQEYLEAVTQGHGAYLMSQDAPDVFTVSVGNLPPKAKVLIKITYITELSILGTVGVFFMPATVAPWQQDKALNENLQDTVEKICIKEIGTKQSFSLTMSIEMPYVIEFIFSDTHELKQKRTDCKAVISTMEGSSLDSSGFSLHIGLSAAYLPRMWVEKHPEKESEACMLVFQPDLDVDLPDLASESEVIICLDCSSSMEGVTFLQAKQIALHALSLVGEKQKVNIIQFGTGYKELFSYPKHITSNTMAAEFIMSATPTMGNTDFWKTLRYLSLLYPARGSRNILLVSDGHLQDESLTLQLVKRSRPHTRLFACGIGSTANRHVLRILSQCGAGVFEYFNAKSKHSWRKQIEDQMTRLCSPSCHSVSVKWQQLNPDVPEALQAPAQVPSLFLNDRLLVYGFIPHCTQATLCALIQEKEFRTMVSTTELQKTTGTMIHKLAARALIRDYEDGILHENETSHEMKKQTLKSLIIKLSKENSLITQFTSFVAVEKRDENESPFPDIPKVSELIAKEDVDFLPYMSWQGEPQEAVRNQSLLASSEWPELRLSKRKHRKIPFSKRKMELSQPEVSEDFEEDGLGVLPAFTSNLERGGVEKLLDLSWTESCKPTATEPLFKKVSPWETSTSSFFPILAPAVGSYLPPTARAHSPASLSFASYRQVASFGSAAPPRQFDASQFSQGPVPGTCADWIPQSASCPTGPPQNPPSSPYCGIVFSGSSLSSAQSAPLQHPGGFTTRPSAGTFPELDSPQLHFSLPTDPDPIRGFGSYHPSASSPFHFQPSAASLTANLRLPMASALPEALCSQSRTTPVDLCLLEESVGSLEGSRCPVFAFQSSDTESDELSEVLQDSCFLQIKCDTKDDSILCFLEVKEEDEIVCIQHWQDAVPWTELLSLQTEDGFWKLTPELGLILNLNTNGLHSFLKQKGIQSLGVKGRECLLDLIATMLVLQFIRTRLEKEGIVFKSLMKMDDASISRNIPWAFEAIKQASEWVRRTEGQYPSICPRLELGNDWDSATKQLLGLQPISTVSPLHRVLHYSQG
Sequence of Poly [ADP-ribose] polymerase tankyrase-1 (Homo sapiens) (O95271 whole entry): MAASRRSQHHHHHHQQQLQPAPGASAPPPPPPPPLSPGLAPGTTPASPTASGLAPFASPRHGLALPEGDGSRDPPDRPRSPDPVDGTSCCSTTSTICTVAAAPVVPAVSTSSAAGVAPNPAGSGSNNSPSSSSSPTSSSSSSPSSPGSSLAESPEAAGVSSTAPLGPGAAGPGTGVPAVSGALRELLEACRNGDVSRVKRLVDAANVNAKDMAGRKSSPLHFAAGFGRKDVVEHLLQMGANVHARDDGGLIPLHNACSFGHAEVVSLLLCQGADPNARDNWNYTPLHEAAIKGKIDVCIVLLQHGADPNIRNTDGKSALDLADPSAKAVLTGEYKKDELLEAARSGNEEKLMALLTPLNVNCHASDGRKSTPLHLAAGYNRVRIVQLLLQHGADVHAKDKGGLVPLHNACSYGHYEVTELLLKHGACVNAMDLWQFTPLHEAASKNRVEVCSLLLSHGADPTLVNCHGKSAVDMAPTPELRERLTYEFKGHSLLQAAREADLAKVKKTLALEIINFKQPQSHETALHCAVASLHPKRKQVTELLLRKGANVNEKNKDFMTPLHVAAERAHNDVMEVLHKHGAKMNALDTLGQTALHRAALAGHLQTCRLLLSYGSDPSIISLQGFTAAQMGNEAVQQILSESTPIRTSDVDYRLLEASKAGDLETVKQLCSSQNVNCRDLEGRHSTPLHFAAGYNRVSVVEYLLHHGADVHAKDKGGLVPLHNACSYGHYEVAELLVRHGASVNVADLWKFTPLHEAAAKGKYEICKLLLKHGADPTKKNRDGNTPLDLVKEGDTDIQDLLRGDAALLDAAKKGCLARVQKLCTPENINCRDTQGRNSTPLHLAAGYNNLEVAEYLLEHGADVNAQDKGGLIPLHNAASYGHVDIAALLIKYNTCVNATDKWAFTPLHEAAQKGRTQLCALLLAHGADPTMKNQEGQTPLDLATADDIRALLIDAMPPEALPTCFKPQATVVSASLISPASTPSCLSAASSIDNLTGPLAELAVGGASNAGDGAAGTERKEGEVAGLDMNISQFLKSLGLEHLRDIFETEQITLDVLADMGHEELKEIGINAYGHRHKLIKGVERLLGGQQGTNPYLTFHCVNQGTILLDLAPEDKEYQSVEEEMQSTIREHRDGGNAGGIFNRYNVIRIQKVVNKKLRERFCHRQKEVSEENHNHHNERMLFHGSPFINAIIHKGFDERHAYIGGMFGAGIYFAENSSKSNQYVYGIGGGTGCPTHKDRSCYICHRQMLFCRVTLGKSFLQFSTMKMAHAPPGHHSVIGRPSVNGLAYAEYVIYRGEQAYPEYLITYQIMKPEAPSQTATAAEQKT
Sequence of Protein mono-ADP-ribosyltransferase PARP3 (Homo sapiens) (Q9Y6F1 whole entry): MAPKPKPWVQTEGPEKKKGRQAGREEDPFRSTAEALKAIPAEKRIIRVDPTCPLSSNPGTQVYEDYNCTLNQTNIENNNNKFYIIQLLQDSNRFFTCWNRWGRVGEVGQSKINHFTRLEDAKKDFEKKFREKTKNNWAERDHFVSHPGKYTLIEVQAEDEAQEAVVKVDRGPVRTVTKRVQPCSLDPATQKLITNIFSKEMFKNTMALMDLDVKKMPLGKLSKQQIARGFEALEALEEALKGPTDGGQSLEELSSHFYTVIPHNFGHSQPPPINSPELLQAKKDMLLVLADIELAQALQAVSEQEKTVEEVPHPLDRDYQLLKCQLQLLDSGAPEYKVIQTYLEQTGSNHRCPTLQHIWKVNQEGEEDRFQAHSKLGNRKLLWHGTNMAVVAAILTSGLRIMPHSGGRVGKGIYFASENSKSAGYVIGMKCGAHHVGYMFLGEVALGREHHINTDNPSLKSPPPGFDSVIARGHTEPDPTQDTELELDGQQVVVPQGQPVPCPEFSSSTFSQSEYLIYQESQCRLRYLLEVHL
Sequence of Protein mono-ADP-ribosyltransferase PARP12 (Homo sapiens) (Q9H0J9 whole entry): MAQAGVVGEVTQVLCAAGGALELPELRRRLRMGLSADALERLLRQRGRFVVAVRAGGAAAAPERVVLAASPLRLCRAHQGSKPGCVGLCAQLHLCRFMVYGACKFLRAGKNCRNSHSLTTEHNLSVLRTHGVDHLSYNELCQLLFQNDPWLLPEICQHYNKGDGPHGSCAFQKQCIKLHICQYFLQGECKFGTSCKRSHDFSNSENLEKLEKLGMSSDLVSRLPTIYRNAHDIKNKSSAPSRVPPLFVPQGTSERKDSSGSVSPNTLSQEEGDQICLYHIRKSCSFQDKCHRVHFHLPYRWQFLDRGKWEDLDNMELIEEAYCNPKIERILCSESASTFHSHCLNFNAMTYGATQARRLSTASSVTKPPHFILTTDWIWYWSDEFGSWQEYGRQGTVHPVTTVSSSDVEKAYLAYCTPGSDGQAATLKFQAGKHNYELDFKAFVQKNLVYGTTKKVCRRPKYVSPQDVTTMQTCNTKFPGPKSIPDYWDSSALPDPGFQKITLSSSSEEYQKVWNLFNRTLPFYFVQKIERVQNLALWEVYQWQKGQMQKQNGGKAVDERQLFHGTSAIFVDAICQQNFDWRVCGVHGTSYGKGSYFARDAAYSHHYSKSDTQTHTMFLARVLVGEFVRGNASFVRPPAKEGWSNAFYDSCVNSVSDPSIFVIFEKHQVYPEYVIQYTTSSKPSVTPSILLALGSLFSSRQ
Sequence of Protein mono-ADP-ribosyltransferase PARP16 (Homo sapiens) (Q8N5Y8 whole entry): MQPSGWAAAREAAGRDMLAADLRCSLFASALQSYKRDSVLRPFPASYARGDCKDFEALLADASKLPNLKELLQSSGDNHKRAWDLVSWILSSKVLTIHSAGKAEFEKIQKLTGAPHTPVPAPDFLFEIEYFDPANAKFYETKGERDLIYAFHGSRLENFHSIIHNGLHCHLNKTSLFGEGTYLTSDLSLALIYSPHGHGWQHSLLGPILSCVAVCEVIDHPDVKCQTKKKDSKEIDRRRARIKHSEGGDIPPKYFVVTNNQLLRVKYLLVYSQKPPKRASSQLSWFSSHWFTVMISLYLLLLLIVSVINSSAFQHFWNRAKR

CCc1cc2ncc(CN3CCN(c4ccc(C(=O)NC)nc4)CC3)cc2[nH]c1=O [SARUPARIB]
Kd(app) [1]: Active
half-life [2]: 276 min
fraction unbound (in vitro [3]): 0.032
clearance [4]: 0.84 mL/min/kg
Kd(app) [5]: Active
clearance [6]: 0.23 mL/min/kg
clearance [7]: 0.35 mL/min/kg
Kd(app) [8]: Active
Activity [9]: Dde
CL free [10]: 20 mL/min/kg
bioavailability [11]: 132%
half-life [12]: 600 min
Vd [13]: 0.38 L/kg
bioavailability [14]: 122%
solubility [15]: 50 µM (≈ 20.3 µg/mL)
Activity [16]: 23%
Kd [17]: > 10 µM
CL free [18]: 34 mL/min/kg
logD (physchem): 1.9
Vd [19]: 0.38 L/kg
fraction unbound (in vitro [20]): 0.17
Vd [21]: 0.3 L/kg
Activity [22]: 73%
bioavailability [23]: 73%
IC50 (DLD-1): 2 nM
Kd(app) [24]: Active
fraction unbound (in vitro [25]): 0.043
Kd(app) [26]: Active
Activity [27]: Toxic
microsomal CLint (in vitro [28]): < 3 µL/min/mg
Kd(app) [29]: Active
CL free [30]: 2.1 mL/min/kg
hepatocyte CLint [31]: < 1 µL/min/1e6 cells
half-life [32]: 480 min
Activity [33]: 86%
CL free [34]: 3.2 mL/min/kg
Activity [35]: 84%
Kd(app) [36]: Active
Vd [37]: 0.17 L/kg
Kd(app) [38]: Active
clearance [39]: 1.1 mL/min/kg
half-life [40]: 426 min
bioavailability [41]: 77%
viability at 120 h, 0.1 µM [42]: 46%
